From patent US12173320B2, “Production of red blood cells and platelets from stem cells” (BOSTON MEDICAL CENTER CORPORATION, priority 2012, dated 2024)

Assays:
Format in all cases: cell-based, human
[1] = system: iPSC-derived MEPs; assay: Live versus dead cell FACS (propidium iodide vs. Hoechst) of MEPs
Procedure: (§1) 6-formylindolo[3,2-b]carbazole (FICZ), an AHR small molecule agonist, and CH223191, an AHR competitive inhibitor were used for these assays. CH223191 was added to mesoderm cultures at Day 6 at 5 μM (lx) and 2.504 (0.5×). 0.2 μM FICZ was added to cultures at Day 7 and media was added daily. DMSO was used as a vehicle control.
Roughly 10^5 cells were collected, spun, and re-suspended in 0.5% BSA in PBS. Samples were incubated for 30 min at ambient temperature with human antibodies including CD41a-FITC (BD 555466), CD235-PE (BD 555570), CD71-FITC (BD 555536), washed and spun at 3300 rpm for 7 min, and re-suspended in 0.5% BSA in PBS with 1 ug/ml Propidium Iodide. Samples were run on a BD FACScalibur using Cellquest Pro software and analyzed via FloJo 8.7. For ploidy analysis, cells were treated with 1.5% NP-40 (Boston Bioproducts P-872) and 62.5 ug/ml Propidium Iodide in PBS immediately before FACScalibur interrogation. For murine bone marrow, samples were first incubated for 5 min at ambient temperature with murine conjugated antibody CD16/32 (BD 553142) before a 30 min incubation with c-Kit-PE (BD 553355), CD41a-FITC (BD 553848), Ter119-PE (BD 553673). For cell viability assays, 2-3×10 ^5 cells were collected, re-suspended in 8.8 ug/ml Hoecsht 33342 in PBS supplemented with 5% FBS. Samples were then incubated in the dark at 37° C. for 15 min, washed, and re-suspended in 1 ug/ml Propidium Iodide in 5% FBS. Samples were run on an LSR-II machine with FACSDiva software and analyzed via FloJo 8.7.
In order to determine whether FICZ-mediated transactivation of the AhR receptor was responsible for the exponential expansion of iPSC-derived MEPs, the previously described Hoecsht/Propidium Iodide apoptosis assay was performed using the known AhR inhibitor CH223191. As previously shown in FIG. 3, fewer cells stained with propidium iodide after FICZ treatment (e.g., 15.5% vs. 8.09%) (FIG. 5E). […] The efficacy of the CH223191 was confirmed by its ability to block CY1^31B1 induction as assayed by qRT-PCR (FIG. 5F).

[2] = system: AhR (CYP1B1 target gene expression) in MEPs; assay: Quantitative RT-PCR of AhR target gene CYP1B1 in MEPs
Procedure: as §1
RNA was extracted using the RNeasy kit (Qiagen) according to the manufacturer's instructions and DNase treated using the DNA-free kit (Ambion AM1906). Reverse transcription into cDNA was performed using the High Capacity cDNA Reverse Transcription Kit (Applied Biosystems 4368814). Quantitative (real time) PCR amplification of cDNA was performed using Taqman probes for AHR (Hs00169233 ml), CYP1B1 (Hs002382916 sl), HBA (Hs00361191 gl), HBB (Hs00758889 sl), HBG (Hs01629437 sl), vWF (Hs00169795 ml), PF4 (Hs00427220 gl), NF-E2 (Hs00232351 ml) and CD62P (Hs00927900 ml) and run on the Applied Biosystems StepOne machine. Relative gene expression was normalized to B-actin (Hs99999903 ml).
To characterize AhR expression and functionality in both undifferentiated iPSCs and directly differentiated MEPs, AhR protein levels were determined via Western blot in these populations. […] To test this hypothesis, the ability of FICZ to induce a prototypic AhR-target gene, CYPIB1, in iPSCs or, as a positive control, MEPs was assessed by quantitative RT-PCR.

[3] = system: AhR; assay: Lentiviral AhR reporter (MMTV-DRE dsRed / luciferase) in MEPs; conditions: day 30 MEPs, FICZ increased to 0.4 μM

- CYP1B1 expression ([2]; Day 15 MEPs, with vs. without FICZ, normalized to β-actin): statistically significant increases
- responsiveness to AhR agonist (CYP1B1 RT-PCR) ([2]; MEP, normalized to GAPDH): responsive
- DsRed reporter expression [3]: significant increase
Compound: O=Cc1c2c(cc3c1=Nc1ccccc1-3)=Nc1ccccc1-2 [FICZ, 6-formylindolo[3,2-b]carbazole]
- cells stained with propidium iodide ([1]; D13 MEPs, FICZ added at D7, untreated 15.5%): 8.09%
- population of live cells as delineated by FSC and SSC ([1]; day 15 MEPs + FICZ): 32.6%
- live cells PI- Hoechst+ ([1]; day 15 MEPs + FICZ, gated from FSC vs. SSC population): 97.7%
- cell death by propidium iodide staining and Hoechst dye exclusion ([1]; day 30 MEPs, versus untreated control): significantly less cell death
